# Test results published in article doi:10.1101/2024.08.19.608619, “Discovery of potent SARS-CoV-2 nsp3 macrodomain inhibitors uncovers lack of translation to cellular antiviral response” (bioRxiv, 2024).
# Where “and” joins values, the source holds several entries; their conditions need not be identical. Identical values can stand only once.
# Assay: Hepatic microsomal stability, MLM
# Type: in vitro ADME
# [1] = In vitro mouse liver microsomal stability
# [2] = In vitro mouse liver microsomal stability; no cofactor
# [3] = In vitro mouse liver microsomal stability, no cofactor
SMILES,perc_remaining [1],t_half [1],perc_remaining_no_cofactor [2] [%],"microsomal CLint (mouse, liver microsomes, In vitro mouse liver microsomal stability) [µL/min/mg]",perc_remaining_no_cofactor [3] [%],clint [1]
CC(C)C(Nc1ncnc2[nH]ccc12)c1ccc2c(c1)S(=O)(=O)CCC2 (stereo not drawn) [ASAP-0008327],10.0%,12.1 min,103.0,138,–,–
COc1ccc([C@@H](Cc2nnn[nH]2)NC(=O)c2ncnc3[nH]ccc23)cc1 [ASAP-0008340],96.0%,4400.5 min,–,–,93.0,–
CC(C)[C@@H](Nc1ncnc2[nH]c(-c3cnn(C)c3C#N)cc12)c1ccc2c(n1)OCCO2 [ASAP-0008418],10.0% and 6.0%,12.0 min and 9.9 min,110.0,–,101.0,139.0 µL/min/mg and 169.0 µL/min/mg
